Experimental findings from patent US10669268B2, “Bicyclic derivatives” (Hoffmann-La Roche Inc., priority 2012, dated 2020) are described below.

In the experiment the target is ATX (human His-tagged) (Homo sapiens (Human), UniProt Q13822). The experiment in a line: Human ATX enzyme inhibition assay (fluorescence quenching, MR121 substrate). Particulars: 30 nM ATX, 1 μM MR121 substrate, 30° C., pH 8.0. It counts as biochemical. Here is the method: Human ATX Enzyme Inhibition Assay
Assay working solutions were made as follows:
Assay buffer (50 mM Tris-HCl, 140 mM NaCl, 5 mM KCl, 1 mM CaCl2, 1 mM MgCl2, 0.01% Triton-X-100, pH 8.0;
MR121 substrate solution: MR121 substrate stock solution (800 μM MR121 substrate in DMSO), diluted to 2-5× final concentration in assay buffer.
10 μL of MR121 substrate solution was added (1 μM final concentration), mixed 30 times and then incubated for 15 minutes at 30° C.

As usually defined, the IC50 is the concentration needed to halve the response being measured. A higher IC50 goes with weaker potency in that assay. For the compound `O=C(OCc1ccc(OC(F)(F)F)cc1)N1C[C@@H]2CN(C(=O)c3cc4nn[nH]c4cn3)C[C@H]2C1` [Example 1.51, (3aS,6aS)-5-(3H-[1,2,3]triazolo[4,5-c]pyridine-6-carbonyl)-hexahydro-pyrrolo[3,4-c]pyrrole-2-carboxylic acid 4-trifluoromethoxy-benzyl ester], the midpoint of inhibition, the IC50, lay at 41 nM.

`O=C(c1cnc(OCC(F)(F)F)c(C(F)(F)F)c1)N1C[C@@H]2CN(C(=O)c3ccc4[nH]nnc4c3)C[C@H]2C1` [Example 19.43, ((3aS,6aS)-5-(1H-benzo[d][1,2,3]triazole-5-carbonyl)hexahydropyrrolo[3,4-c]pyrrol-2(1H)-yl)(6-(2,2,2-trifluoroethoxy)-5-(trifluoromethyl)pyridin-3-yl)methanone] had an IC50 of 14 nM.

On to `O=C(CCc1ccc(-c2ccncc2)cc1)N1C[C@@H]2CN(C(=O)c3ccc4[nH]nnc4c3)C[C@H]2C1` [Example 17.11, 1-[(3aR,6aR)-5-(1H-benzotriazole-5-carbonyl)-hexahydro-pyrrolo[3,4-c]pyrrol-2-yl]-3-(4-pyridin-4-yl-phenyl)-propan-1-one], for which the IC50 is 28 nM.

Consider `CN(C)S(=O)(=O)c1ccc(/C=C/C(=O)N2CC[C@@H]3CN(C(=O)c4ccc5[nH]nnc5c4)C[C@@H]3CC2)cc1` [Example 15.08], for which the concentration for half-maximal inhibition (IC50) was found to be 977 nM.

Consider `Cc1cc(OCC(=O)N2C[C@@H]3CN(C(=O)c4ccc5[nH]nnc5c4)C[C@@H]3C2)c(C(C)C)cc1Cl` [Example 15.67], for which the IC50 worked out at 14 nM.

In turn, `NS(=O)(=O)C1CCN(C(=O)N2C[C@H]3CN(C(=O)OCc4ccc(OC(F)(F)F)cc4)C[C@@H]3C2)CC1` [Example 9.10] gave an IC50 of 7 nM.

Compound `COc1cc(C(=O)N2C[C@@H]3CN(C(=O)c4ccc5[nH]nnc5c4)C[C@H]3C2)cc2ccccc12` [Example 19.07, (1H-benzotriazol-5-yl)-[(3aS,6aS)-5-(4-methoxy-naphthalene-2-carbonyl)-hexahydro-pyrrolo[3,4-c]pyrrol-2-yl]-methanone] yielded an IC50 of 24 nM.

`O=C(/C=C/c1ccc(OC(F)(F)F)cc1)N1CC[C@@H]2CN(C(=O)N3CCc4[nH]ncc4C3)C[C@@H]2CC1` [Example 8.02] came in with a half-inhibitory concentration (IC50) of 186 nM.

Take `O=C(CCc1cc(F)cc(C(F)(F)F)c1)N1C[C@@H]2CN(C(=O)c3ccc4[nH]nnc4c3)C[C@@H]2C1` [Example 15.03]: 362 nM corresponded to half-maximal inhibition (IC50).

`O=C(OCC12CC3CC(CC(C3)C1)C2)N1C[C@@H]2CN(C(=O)c3ccc4[nH]nnc4c3)C[C@@H]2C1` [Example 4.18, (3aS,6aR)-5-(1H-benzotriazole-5-carbonyl)-hexahydro-pyrrolo[3,4-c]pyrrole-2-carboxylic acid adamantan-1-ylmethyl ester] had an IC50 of 5620 nM.

`O=C(/C=C/c1ccc(F)cc1C(F)(F)F)N1CC[C@@H]2CN(C(=O)c3ccc4[nH]nnc4c3)C[C@@H]2CC1` [Example 15.66, (E)-1-((3aR,8aS)-2-(1H-benzo[d][1,2,3]triazole-5-carbonyl)octahydro-pyrrolo[3,4-d]azepin-6(7H)-yl)-3-(4-fluoro-2-(trifluoromethyl)phenyl)-prop-2-en-1-one] gave an IC50 of 13 nM. This IC50 is about 430-fold lower than that of the compound before.

`CC(C)Oc1cc(C#N)ccc1COC(=O)N1C[C@@H]2CN(C(=O)c3ccc4[nH]nnc4c3)C[C@H]2C1` [Example 4.65, (3aS,6aS)-5-(1H-benzotriazole-5-carbonyl)-hexahydro-pyrrolo[3,4-c]pyrrole-2-carboxylic acid 4-cyano-2-isopropoxy-benzyl ester] came in with an IC50 of 14 nM.

Compound `O=C(OCc1cccc(C(O)C(F)(F)F)c1)N1C[C@@H]2CN(C(=O)c3ccc4[nH]nnc4c3)C[C@@H]2C1` (stereo partly drawn) [Example 4.21, cis-5-(1H-benzotriazole-5-carbonyl)-hexahydro-pyrrolo[3,4-c]pyrrole-2-carboxylic acid 3-(2,2,2-trifluoro-1-hydroxy-ethyl)-benzyl ester] displayed an IC50 of 3480 nM.

For `CC(C)(Cc1cccc(Cl)c1)C(=O)N1CC[C@@H]2CN(C(=O)c3ccc4[nH]nnc4c3)C[C@@H]2CC1` [Example 1.14, 1-((3aR,8aS)-2-(1H-benzo[d][1,2,3]triazole-5-carbonyl)octahydropyrrolo[3,4-d]azepin-6(7H)-yl)-3-(3-chlorophenyl)-2,2-dimethylpropan-1-one], the IC50 is 810 nM.

`Cc1cc(OC(F)(F)F)ccc1/C=C/C(=O)N1CC[C@@H]2CN(C(=O)c3ccc4[nH]nnc4c3)C[C@@H]2CC1` [Example 1.18, (E)-1-((3aR,8aS)-2-(1H-benzo[d][1,2,3]triazole-5-carbonyl)octahydropyrrolo[3,4-d]azepin-6(7H)-yl)-3-(2-methyl-4-(trifluoromethoxy)phenyl)prop-2-en-1-one] came in with an IC50 of 10 nM.

Turning to `O=C(COc1cc(Cl)ccc1C(F)(F)F)N1CC[C@@H]2CN(C(=O)c3ccc4[nH]nnc4c3)C[C@@H]2CC1` [Example 1.41, 1-((3aR,8aS)-2-(1H-benzo[d][1,2,3]triazole-5-carbonyl)octahydropyrrolo[3,4-d]azepin-6(7H)-yl)-2-(5-chloro-2-(trifluoromethyl)phenoxy)ethanone], 2 nM corresponded to half-maximal inhibition (IC50).

In the case of `O=C(OCc1ccc(OC(F)(F)C(F)F)cc1)N1C[C@@H]2CN(C(=O)c3ccc4[nH]nnc4c3)C[C@H]2C1` [Example 4.38, (3aS,6aS)-5-(1H-benzotriazole-5-carbonyl)-hexahydro-pyrrolo[3,4-c]pyrrole-2-carboxylic acid 4-(1,1,2,2-tetrafluoro-ethoxy)-benzyl ester], the IC50 came out at 24 nM. This IC50 is about 12-fold higher than that of the compound before.

`O=C(OCc1cc(Cl)cc(Cl)c1)N1CC[C@@H]2CN(C(=O)c3ccc4[nH]nnc4c3)C[C@H]2C1` (relative stereo) [Example 1.09, trans-3,5-dichlorobenzyl 2-(1H-benzo[d][1,2,3]triazole-5-carbonyl)hexahydro-1H-pyrrolo[3,4-c]pyridine-5(6H)-carboxylate] returned an IC50 of 9 nM.

Take `O=C(COc1ccc(OC(F)(F)F)cc1)N1C[C@@H]2CN(C(=O)[C@@H]3CCc4[nH]nnc4C3)C[C@H]2C1` [Example 19.34, 1-[(3aS,6aS)-5-[(5R)-4,5,6,7-tetrahydro-1H-benzotriazole-5-carbonyl]-1,3,3a,4,6,6a-hexahydropyrrolo[3,4-c]pyrrol-2-yl]-2-[4-(trifluoromethoxy)phenoxy]ethanone]: the IC50 turned out to be 3 nM.

The compound `N#Cc1ccc(COC(=O)N2C[C@@H]3CN(C(=O)c4ccc5[nH]nnc5c4)C[C@H]3C2)c(OCC(F)(F)F)c1` [Example 4.66, (3aS,6aS)-5-(1H-benzotriazole-5-carbonyl)-hexahydro-pyrrolo[3,4-c]pyrrole-2-carboxylic acid 4-cyano-2-(2,2,2-trifluoro-ethoxy)-benzyl ester] showed an IC50 of 40 nM.

`O=C(NCc1cnn[nH]1)[C@H]1C[C@@H]2CN(C(=O)OCc3cc(Cl)cc(Cl)c3)C[C@@H]2C1` [Example 4.33, (3aR,5s,6aS)-5-[(3H-[1,2,3]triazol-4-ylmethyl)-carbamoyl]-hexahydro-cyclopenta[c]pyrrole-2-carboxylic acid 3,5-dichloro-benzyl ester] yielded an IC50 of 36 nM.

As to `O=C(COc1ccc(OC(F)(F)F)cc1Br)N1C[C@@H]2CN(C(=O)c3ccc4[nH]nnc4c3)C[C@H]2C1` [Example 19.01, 1-[(3aS,6aS)-5-(1H-benzotriazole-5-carbonyl)-hexahydro-pyrrolo[3,4-c]pyrrol-2-yl]-2-(2-bromo-4-trifluoromethoxy-phenoxy)-ethanone], half-maximal inhibition (IC50) was put at 12 nM.

The compound `COc1cc(Cl)cc(/C=C/C(=O)N2C[C@@H]3CN(C(=O)c4ccc5[nH]nnc5c4)C[C@H]3C2)c1` [Example 15.49] had an IC50 of 16 nM.

`O=C(OCc1cc(Cl)cc(Cl)c1)N1C[C@@H]2CN(C(=O)c3ccc4[nH]nnc4c3)C[C@H]2C1` [Example 4, (3aS,6aS)-3,5-Dichlorobenzyl 5-(1H-benzo[d][1,2,3]triazole-5-carbonyl)hexahydro-pyrrolo[3,4-c]pyrrole-2(1H)-carboxylate] displayed an IC50 of 8 nM.

For the compound `O=C(/C=C/c1ccc(-c2cccnc2)cc1)N1C[C@@H]2CN(C(=O)c3ccc4[nH]nnc4c3)C[C@H]2C1` [Example 15.80, (E)-1-[(3aR,6aR)-5-(1H-benzotriazole-5-carbonyl)-hexahydro-pyrrolo[3,4-c]pyrrol-2-yl]-3-(4-pyridin-3-yl-phenyl)-prop-2-en-1-one], the IC50 was 60 nM.

In turn, `O=C(OC1(c2cccc(Cl)c2)CC1)N1C[C@@H]2CN(C(=O)c3ccc4[nH]nnc4c3)C[C@@H]2C1` [Example 4.12, (3aS,6aR)-5-(1H-benzotriazole-5-carbonyl)-hexahydro-pyrrolo[3,4-c]pyrrole-2-carboxylic acid 1-(3-chloro-phenyl)-cyclopropyl ester] showed an IC50 of 1480 nM.

The compound `O=C(OCc1ccc(OC(F)(F)F)cn1)N1C[C@@H]2CN(C(=O)c3ccc4[nH]nnc4c3)C[C@H]2C1` [Example 4.45, (3aS,6aS)-5-(1H-benzotriazole-5-carbonyl)-hexahydro-pyrrolo[3,4-c]pyrrole-2-carboxylic acid 5-trifluoromethoxy-pyridin-2-ylmethyl ester] registered an IC50 of 7 nM.

`O=C(OCC1C2CC3CC(C2)CC1C3)N1C[C@@H]2CN(C(=O)c3ccc4[nH]nnc4c3)C[C@@H]2C1` (stereo partly drawn) [Example 4.14, (3aS,6aR)-5-(1H-benzotriazole-5-carbonyl)-hexahydro-pyrrolo[3,4-c]pyrrole-2-carboxylic acid adamantan-2-ylmethyl ester]: inhibition was half-maximal at 4190 nM (IC50).

For `CS(=O)(=O)c1ccc(/C=C/C(=O)N2CC[C@@H]3CN(C(=O)c4ccc5[nH]nnc5c4)C[C@@H]3CC2)cc1` [Example 15.68], 171 nM corresponded to half-maximal inhibition (IC50).
